Source: patent US9113629B2, “4-amino-6-(4-substituted-phenyl)-picolinates and 6-amino-2-(4-substituted-phenyl)-pyrimidine-4-carboxylates and their use as herbicides” (DOW AGROSCIENCES LLC, priority 2013, dated 2015)
Where two headings read alike, the source gives them in different places.

How the values were obtained:
[1] = tested on: Key Grass and Sedge Weeds as well as Grass Crops; experiment: Post-emergent Test II herbicidal activity (Table 6); assay type: in vivo; conditions: post-emergence, 336 h; for pest or weed control at 70 g/ha: application rate 70 g ai/ha; for pest or weed control at 140 g/ha: application rate 140 g ai/ha
Summary of the method: (§1)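 Foliar application at 187 L/ha to greenhouse-grown seedlings (first or second true leaf); subirrigation thereafter. Visual 0–100% injury at 14 d relative to untreated plants.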

[2] = tested on: Key Broadleaf Weed and Crop Species; experiment: Post-emergent Test II herbicidal activity (Table 5); assay type: in vivo; conditions: post-emergence, 336 h, post-emergent, 14 days after application; for pest or weed control at 70 g/ha: 70 g ai/ha; for pest or weed control at 140 g/ha: 140 g ai/ha
Summary of the method: as §1

[3] = Triticum aestivum, TRZSS (wheat), read-out: Visual Growth Reduction (%) 14 Days After Application, TRZSS
[4] = CYPES: yellow nutsedge (Cyperus esculentus), read-out: Visual Growth Reduction (%) 14 Days After Application, CYPES
[5] = DIGSA: crabgrass (Digitaria sanguinalis), read-out: Visual Growth Reduction (%) 14 Days After Application, DIGSA
[6] = ECHCG: barnyardgrass (Echinochloa crus-galli), read-out: Visual Growth Reduction (%) 14 Days After Application, ECHCG
[7] = ORYSA: rice (Oryza sativa), read-out: Visual Growth Reduction (%) 14 Days After Application, ORYSA
[8] = SETFA: giant foxtail (Setaria faberi), read-out: Visual Growth Reduction (%) 14 Days After Application, SETFA
[9] = SORVU: grain sorghum (Sorghum vulgare), read-out: Visual Growth Reduction (%) 14 Days After Application, SORVU
[10] = ZEAMX: maize, corn (Zea mays), read-out: Visual Growth Reduction (%) 14 Days After Application, ZEAMX
[11] = ABUTH: velvetleaf (Abutilon theophrasti), read-out: Visual Growth Reduction (%) 14 Days After Application ABUTH
[12] = AMARE: redroot pigweed (Amaranthus retroflexus), read-out: Visual Growth Reduction (%) 14 Days After Application AMARE
[13] = BRSNN: oilseed-rape, canola (Brassica napus), read-out: Visual Growth Reduction (%) 14 Days After Application BRSNN
[14] = CHEAL: lambsquarters (Chenopodium album), read-out: Visual Growth Reduction (%) 14 Days After Application CHEAL
[15] = EPHHL: wild poinsettia (Euphorbia heterophylla), read-out: Visual Growth Reduction (%) 14 Days After Application EPHHL
[16] = HELAN: sunflower (Helianthus annuus), read-out: Visual Growth Reduction (%) 14 Days After Application HELAN
[17] = VIOTR: wild pansy (Viola tricolor), read-out: Visual Growth Reduction (%) 14 Days After Application VIOTR

Row | Compound | pest or weed control at 70 g/ha [1, 3] | pest or weed control at 140 g/ha [1, 3] | pest or weed control at 70 g/ha [1, 4] | pest or weed control at 140 g/ha [1, 4] | pest or weed control at 70 g/ha [1, 5] | pest or weed control at 140 g/ha [1, 5] | pest or weed control at 70 g/ha [1, 6] | pest or weed control at 140 g/ha [1, 6] | pest or weed control at 70 g/ha [1, 7] | pest or weed control at 140 g/ha [1, 7] | pest or weed control at 70 g/ha [1, 8] | pest or weed control at 140 g/ha [1, 8] | pest or weed control at 70 g/ha [1, 9] | pest or weed control at 140 g/ha [1, 9] | pest or weed control at 70 g/ha [1, 10] | pest or weed control at 140 g/ha [1, 10] | pest or weed control at 70 g/ha [2, 11] | pest or weed control at 140 g/ha [2, 11] | pest or weed control at 70 g/ha [2, 12] | pest or weed control at 140 g/ha [2, 12] | also measured
1 | COC(=O)c1nc(-c2ccc(I)c(F)c2)cc(N)c1Cl [Compound 66, methyl 4-amino-3-chloro-6-(3-fluoro-4-iodophenyl)picolinate] | 0 to 29% | 0 to 29% | 45 to 59% | 95 to 100% | 60 to 74% | 60 to 74% | 0 to 29% | 60 to 74% | 0 to 29% | 0 to 29% | 0 to 29% | 0 to 29% | 75 to 84% | 85 to 94% | 0 to 29% | 0 to 29% | 85 to 94% | 85 to 94% | 95 to 100% | 95 to 100% | pest or weed control at 70 g/ha [2, 13]: 45 to 59%; pest or weed control at 140 g/ha [2, 13]: 45 to 59%; pest or weed control at 70 g/ha [2, 14]: 85 to 94%; pest or weed control at 140 g/ha [2, 14]: 85 to 94%; pest or weed control at 70 g/ha [2, 15]: 95 to 100%; pest or weed control at 140 g/ha [2, 15]: 95 to 100%; pest or weed control at 70 g/ha [2, 16]: 85 to 94%; pest or weed control at 140 g/ha [2, 16]: 85 to 94%; pest or weed control at 70 g/ha [2, 17]: 0 to 29%; pest or weed control at 140 g/ha [2, 17]: 0 to 29%
2 | Nc1c(F)c(-c2cc(F)c(I)cc2F)nc(C(=O)O)c1Cl [Compound 69] | 60 to 74% | 85 to 94% | 45 to 59% | 95 to 100% | 95 to 100% | 95 to 100% | 95 to 100% | 95 to 100% | 0 to 29% | 0 to 29% | 95 to 100% | 95 to 100% | 95 to 100% | 95 to 100% | 75 to 84% | 75 to 84% | 85 to 94% | 85 to 94% | 95 to 100% | 95 to 100% | pest or weed control at 70 g/ha [2, 13]: 95 to 100%; pest or weed control at 140 g/ha [2, 13]: 95 to 100%; pest or weed control at 70 g/ha [2, 14]: 95 to 100%; pest or weed control at 140 g/ha [2, 14]: 95 to 100%; pest or weed control at 70 g/ha [2, 15]: 95 to 100%; pest or weed control at 140 g/ha [2, 15]: 95 to 100%; pest or weed control at 70 g/ha [2, 16]: 95 to 100%; pest or weed control at 140 g/ha [2, 16]: 95 to 100%; pest or weed control at 70 g/ha [2, 17]: 95 to 100%; pest or weed control at 140 g/ha [2, 17]: 95 to 100%
3 | COC(=O)c1nc(-c2ccc(Br)c(F)c2)c(Cl)c(N)c1Cl [Compound 73, Methyl 4-amino-6-(4-bromo-3-fluorophenyl)-3,5-dichloropicolinate] | 60 to 74% | 60 to 74% | 95 to 100% | 95 to 100% | 0 to 29% | 45 to 59% | 0 to 29% | 60 to 74% | 0 to 29% | 0 to 29% | 60 to 74% | 60 to 74% | 85 to 94% | 85 to 94% | 60 to 74% | 60 to 74% | 85 to 94% | 85 to 94% | 95 to 100% | 95 to 100% | pest or weed control at 70 g/ha [2, 13]: 95 to 100%; pest or weed control at 140 g/ha [2, 13]: 95 to 100%; pest or weed control at 70 g/ha [2, 14]: 85 to 94%; pest or weed control at 140 g/ha [2, 14]: 85 to 94%; pest or weed control at 70 g/ha [2, 15]: 45 to 59%; pest or weed control at 140 g/ha [2, 15]: 60 to 74%; pest or weed control at 70 g/ha [2, 16]: 95 to 100%; pest or weed control at 140 g/ha [2, 16]: 95 to 100%; pest or weed control at 70 g/ha [2, 17]: 45 to 59%; pest or weed control at 140 g/ha [2, 17]: 45 to 59%
4 | Nc1cc(-c2ccc(Br)cc2F)nc(C(=O)O)c1Cl [Compound 74] | 45 to 59% | 60 to 74% | 95 to 100% | 95 to 100% | 85 to 94% | 85 to 94% | 85 to 94% | 85 to 94% | 0 to 29% | 30 to 44% | 75 to 84% | 85 to 94% | 85 to 94% | 85 to 94% | 75 to 84% | 75 to 84% | 95 to 100% | 95 to 100% | 95 to 100% | 95 to 100% | pest or weed control at 70 g/ha [2, 13]: 85 to 94%; pest or weed control at 140 g/ha [2, 13]: 85 to 94%; pest or weed control at 70 g/ha [2, 14]: 95 to 100%; pest or weed control at 140 g/ha [2, 14]: 95 to 100%; pest or weed control at 70 g/ha [2, 15]: 95 to 100%; pest or weed control at 140 g/ha [2, 15]: 95 to 100%; pest or weed control at 70 g/ha [2, 16]: 95 to 100%; pest or weed control at 140 g/ha [2, 16]: 95 to 100%; pest or weed control at 70 g/ha [2, 17]: 95 to 100%; pest or weed control at 140 g/ha [2, 17]: 95 to 100%
